We go through six compounds from ChEMBL document CHEMBL4316630, “Benzimidazole-based DGAT1 inhibitors with a [3.1.0] bicyclohexane carboxylic acid moiety” (Bioorg Med Chem Lett, 2019).

For orientation: logD means lipophilicity at a set pH, counting ionised and neutral species. The term IC50 denotes the point on the concentration scale where inhibition reaches its midpoint.

Series [1] can be described thus: Lipophilicity, log D of the compound by HPLC analysis. In kind it is physicochemical.
For series [2], the target named is T1, Diacylglycerol O-acyltransferase 1 (Mus musculus, UniProt Q9Z2A7).
T1 sequence (Q9Z2A7 whole entry): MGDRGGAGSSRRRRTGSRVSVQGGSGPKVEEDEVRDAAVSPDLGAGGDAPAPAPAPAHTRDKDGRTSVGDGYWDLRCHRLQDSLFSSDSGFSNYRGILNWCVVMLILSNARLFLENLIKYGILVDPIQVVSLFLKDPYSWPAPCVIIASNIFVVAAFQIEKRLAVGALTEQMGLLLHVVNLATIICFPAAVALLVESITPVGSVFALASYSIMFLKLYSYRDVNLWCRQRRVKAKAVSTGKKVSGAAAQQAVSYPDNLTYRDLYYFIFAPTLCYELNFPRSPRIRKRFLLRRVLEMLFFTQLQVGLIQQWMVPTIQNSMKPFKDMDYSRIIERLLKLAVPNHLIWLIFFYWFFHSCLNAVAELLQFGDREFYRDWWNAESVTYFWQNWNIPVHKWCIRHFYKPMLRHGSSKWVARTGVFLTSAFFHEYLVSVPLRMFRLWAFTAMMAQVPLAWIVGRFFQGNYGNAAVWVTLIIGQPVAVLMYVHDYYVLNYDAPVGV
As to the kind of experiment: Inhibition of mouse DGAT1.

The target of series [3] is T2, Diacylglycerol O-acyltransferase 1 (Homo sapiens, UniProt O75907).
T2 sequence (O75907 whole entry): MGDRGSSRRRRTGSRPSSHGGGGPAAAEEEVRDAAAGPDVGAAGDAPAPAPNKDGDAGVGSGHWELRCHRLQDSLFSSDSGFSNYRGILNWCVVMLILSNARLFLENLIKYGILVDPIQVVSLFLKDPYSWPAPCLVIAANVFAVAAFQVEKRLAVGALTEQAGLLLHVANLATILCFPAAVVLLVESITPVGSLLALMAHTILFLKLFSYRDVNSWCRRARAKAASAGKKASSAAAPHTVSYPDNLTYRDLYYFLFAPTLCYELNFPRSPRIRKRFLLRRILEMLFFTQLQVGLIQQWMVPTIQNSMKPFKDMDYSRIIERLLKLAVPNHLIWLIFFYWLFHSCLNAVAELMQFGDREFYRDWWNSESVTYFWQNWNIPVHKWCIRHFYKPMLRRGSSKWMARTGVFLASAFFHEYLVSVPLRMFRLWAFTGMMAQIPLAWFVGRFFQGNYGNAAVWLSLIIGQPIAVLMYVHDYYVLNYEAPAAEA
Briefly: Inhibition of human DGAT1.

The species entered for a further series is Homo sapiens. Briefly: Selectivity index, ratio of IC50 for human ACAT1 to IC50 for human DGAT1.
Series [4] relates to Mus musculus. As to the kind of experiment: Reduction in lipid excursion in mouse assessed as change in triglyceride level at 3 mg/kg, po measured at 18 hrs post dose by lipid tolerance test. In kind it is functional. Further details: scale not given: the % may be the effect or the level left.
Series [5] addresses T3, Sterol O-acyltransferase 1 (Homo sapiens, UniProt P35610).
T3 sequence (P35610 whole entry): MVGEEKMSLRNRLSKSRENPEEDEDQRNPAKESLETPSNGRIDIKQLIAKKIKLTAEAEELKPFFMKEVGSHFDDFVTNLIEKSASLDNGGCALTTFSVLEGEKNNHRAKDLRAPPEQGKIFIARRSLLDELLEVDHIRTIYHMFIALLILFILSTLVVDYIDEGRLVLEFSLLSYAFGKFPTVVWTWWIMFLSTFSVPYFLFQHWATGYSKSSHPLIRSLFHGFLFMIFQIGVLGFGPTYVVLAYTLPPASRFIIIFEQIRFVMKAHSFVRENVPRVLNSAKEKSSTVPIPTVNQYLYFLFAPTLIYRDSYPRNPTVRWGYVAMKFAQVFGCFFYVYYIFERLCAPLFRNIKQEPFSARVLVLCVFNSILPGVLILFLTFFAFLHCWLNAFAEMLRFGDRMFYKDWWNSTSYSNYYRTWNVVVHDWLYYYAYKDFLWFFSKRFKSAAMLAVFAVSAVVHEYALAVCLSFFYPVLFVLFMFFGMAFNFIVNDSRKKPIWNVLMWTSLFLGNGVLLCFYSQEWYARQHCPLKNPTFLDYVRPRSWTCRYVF
As to the kind of experiment: Inhibition of human ACAT1.

The nature of series [6]: Plasma concentration in mouse at 3 mg/kg, po. The class given is ADME, organism-based. Particulars: in vivo.
Series [7] in a line: Stability in rat hepatocytes assessed as epimerization incubated for 2 hrs by UPLC/HRMS analysis. In kind it is ADME, cell-based, Hepatocyte.
Series [8] in a line: Drug metabolism in human hepatocytes assessed as glucuronide formation incubated for 2 hrs by UPLC/HRMS analysis. In kind it is ADME, cell-based, Hepatocyte.
Series [9] in a line: Plasma concentration in mouse at 10 mg/kg, po after 4 hrs. In kind it is ADME, organism-based.
Series [10] is described as follows: Drug metabolism in mouse hepatocytes assessed as glucuronide formation incubated for 2 hrs by UPLC/HRMS analysis. In kind it is ADME, cell-based, Hepatocyte.
Series [11] in a line: Stability in mouse hepatocytes assessed as epimerization incubated for 2 hrs by UPLC/HRMS analysis. In kind it is ADME, cell-based, Hepatocyte.
The nature of series [12]: Stability in human hepatocytes assessed as epimerization incubated for 2 hrs by UPLC/HRMS analysis. The class given is ADME, cell-based, Hepatocyte.
A short description of series [13]: Drug metabolism in rat hepatocytes assessed as glucuronide formation incubated for 2 hrs by UPLC/HRMS analysis. In kind it is ADME, cell-based, Hepatocyte.
The nature of series [14]: Plasma concentration in mouse at 10 mg/kg, po. In kind it is ADME, organism-based. As to conditions: in vivo.
Series [15] has as its system Mus musculus. Briefly: Reduction in lipid excursion in mouse assessed as change in triglyceride level at 10 mg/kg, po measured at 18 hrs post dose by lipid tolerance test. In kind it is functional. Also on record: scale not given: the % may be the effect or the level left.
The nature of series [16]: Drug metabolism in mouse assessed as epimerization by measuring plasma concentration of 1s,4s)-4-(1-(5-(5-(trifluoromethyl)-1H-benzo[d]imidazol-2-yl)pyridin-2-yl)piperidin-4-yloxy)cyclohexanecarboxylic acid at 10 mg/kg, po after 3 hrs. In kind it is ADME, organism-based. As to conditions: in vivo.
Series [17] in a line: Plasma concentration in mouse at 10 mg/kg, po after 3 hrs. The class given is ADME, organism-based.

In turn, `O=C(O)[C@H]1[C@@H]2C[C@@H](OC3CCN(c4ccc(-c5nc6cc(C(F)(F)F)ccc6[nH]5)cn4)CC3)C[C@@H]21` yielded a logD in series [1] of 1.87. Also, the results for the 50% inhibitory concentration (IC50) in series [2], in [3] and in series [5] were 22 nM, 3.8 nM and > 10000 nM, respectively. For the same compound, the Ratio IC50 in the series listed under Homo sapiens is > 2600. In the series on Mus musculus [4], the Activity is recorded as -30%. This compound also returned a concentration in series [6] of 25 nM.
Turning to `O=C(O)[C@H]1[C@@H]2C[C@H](OC3CCN(c4ccc(-c5nc6cc(C(F)(F)F)ccc6[nH]5)cn4)CC3)C[C@@H]21`, the logD in series [1] turned out to be 1.9. In addition, the Stability result in series [7], in [11] and in [12] was “Stable” throughout. The Drug metabolism entry in [8], in [10] and in series [13] was “Metabolite_Detected” in each case. Besides, the concentration at 4 h in series [9] turned out to be 151 nM. Further, the IC50 amounted to 4.3 nM in series [2] and 3900 nM in [5]. For the same compound, the Ratio IC50 in the series filed under Homo sapiens is 1950. In the series on Mus musculus [4], the Activity is -70%. The concentration in series [6] came to 27 nM.
As to `O=C(O)[C@@H]1[C@@H]2C[C@H](OC3CCN(c4ccc(-c5nc6cc(C(F)(F)F)ccc6[nH]5)cn4)CC3)C[C@@H]21`, in [1], the logD turned out to be 1.88. The Stability result in series [7], in series [11] and in series [12] was “Stable” throughout. The Drug metabolism entry in series [8], in series [10] and in series [13] was “Metabolite_Detected” each time. The IC50 in series [2] is 74 nM; in series [5] it was > 10000 nM. Besides, the Ratio IC50 in the series filed under Homo sapiens was > 900. The Activity in the series on Mus musculus [4] came out at 3%. The concentration in [6] is 23 nM.
Consider `O=C(O)[C@@H]1[C@@H]2C[C@@H](OC3CCN(c4ccc(-c5nc6cc(C(F)(F)F)ccc6[nH]5)cn4)CC3)C[C@@H]21`, for which, in series [1], the log distribution coefficient (logD) amounted to 1.73. The IC50 in series [2] is 48 nM; in [3], 5.9 nM; in [5], > 10000 nM. Further, in the series filed under Homo sapiens, the Ratio IC50 was > 1690. Further, the Activity in the series on Mus musculus [4] is -30%. Besides, in [6], the concentration turned out to be 51 nM.
In the case of `O=C(O)[C@H]1CC[C@@H](OC2CCN(c3ccc(-c4nc5cc(C(F)(F)F)ccc5[nH]4)cn3)CC2)CC1`, the logD in series [1] came out at 1.64. Besides, the Stability result in series [7], in series [11] and in series [12] was “Unstable” in each case. In addition, in [14], the concentration amounted to 26 nM. Moreover, the Ratio IC50 in the series filed under Homo sapiens was > 4000. The Activity in the series on Mus musculus [15] is recorded as -75%.
The compound `O=C(O)[C@H]1CC[C@H](OC2CCN(c3ccc(-c4nc5cc(C(F)(F)F)ccc5[nH]4)cn3)CC2)CC1` yielded a logD in [1] of 1.68. The Stability entry in series [7], in series [11] and in series [12] was “Unstable” throughout. For the same compound, the concentration in series [16] came to 54 nM; in [14] it was 17 nM. The same compound gave a concentration at 3 h in series [17] of 324 nM. In the series listed under Homo sapiens, the Ratio IC50 was > 2500. Moreover, the Activity in the series on Mus musculus [15] is recorded as -89%.
